Source: patent US20060135612A1, “Method of ameliorating or abrogating the effects of a neurodegenerative disorder, such as amyotrophic lateral sclerosis (ALS), by using a HDAC inhibiting agent” (U.S. Department of Veterans Affairs, priority 2004, published 2006)
Where two headings read alike, the source gives them in different places.

Legend:
acetylated NF-κB p50 = conditions: 1 mM
Procedure: (§1) Freshly isolated spinal cords from wild type and G93A mice were minced and incubated with neurobasal medium for 12 hr. […] After incubation, the tissues were harvested and equally divided for Western blot analysis and RT-PCR.
Detection of Acetylated NF-κB p50: For detection of the levels of acetylated NF-κB p50, 200 μg of nuclear extracts were diluted to a total volume of 500 microliter in lysis buffer (100 mM Tris buffer, pH7.4, containing 1% Triton X-100, 150 mM NaCl, 1 mM sodium orthovanadate, 5 mM sodium fluoride, 3 mM PMSF, 3 mM DTT, 0.5 mg/m leupeptin, and 10 mg/ml aprotinin) and incubated with 7 μl of goat anti-p50 antibody (Santa Cruz, Santa Cruz, Calif.) by shaking overnight at 4° C. Thirty-two μl of protein A-sepharose (50% v/v slurry) was added to lysates and left for 1 hr at 4° C. Beads were collected by centrifugation and washed twice with lysis buffer, once in PBS and finally resuspended with 40 μl of 2×SDS loading buffer. Samples were boiled and a 20 μl aliquot was separated in a 10% SDS-PAGE. After transferring the proteins to a nitrocellulose membrane acetylated p50 proteins were detected in Western blot analysis using an acetyl lysine-specific antibody (AbCam, Cambridge, Mass. at 1:1000).

bcl-2 promoter = bcl-2 promoter activity assay in transfected N2a cells; type: cell-based
Procedure: Promoter Activity Assay: […] Vincent Bours (University of Liege, Belgium) (Reference 41). The bcl-2 Luc-reporter plasmids containing the fragment from -3934 to -8 from the bcl-2 promoter was also generous gift from Dr. L. Boxer (Stanford University, California). […] All promoter assays were performed in duplicates. Enzyme activities were normalized to the protein concentration of the extracts.

bcl-2 mRNA = conditions: spinal cord tissue cultures, ex vivo administration
Procedure: as §1

G93A mice [1] = conditions: 120 days; for reactive astrogliosis (GFAP immunostaining): G93A mice spinal cord sections; for gross spinal cord atrophy: G93A mice
plκB [2] = conditions: spinal cord tissue cultures, 1 mM, time-dependent
Procedure: as §1
(§2) Western Blotting: Tissue lysates and subcellular fractions were prepared using an ice-cold cell extraction buffer containing 50 mM Tris-HCl, pH 7.4, 150 mM NaCl, 2 mM EDTA, 1% Triton X-100, 1 mM phenylmethylsulfonyl fluoride (PMSF), 10 mg/ml leupeptin, 1 μM pepstatin, 1 mM N-ethylmleimide (NEM), 2 mM Na3VO4, 20 mM sodium pyrophosphate, and 50 mM NaF). Lysates were centrifuged at 15,000 rpm at 4° C. for 30 min. Then the protein concentration was quantified and samples were boiled for 10 min with Laemmli buffer (15 is 100 mM Tris-HCL, pH 6.8, 4% SDS, 200 mM dithiothreitol, 20% glycerol, 2% SDS, 0.2% bromophenol blue, 10 μg/ml aprotinin, 10 μg/ml leupeptin) at 100° C. In general, 30 μg of proteins were electrophoresed on 10% SDS-polyacrylamide gel and transferred to nitrocellulose membrane. Membranes were blocked in 5% skim milk in TBST (Tris, pH 7.4; 150 mM NaCl; 0.05% Tween 20) for 30 min at room temperature. Blots were probed with primary antibodies overnight at 4 ° C. […] HRP-conjugated secondary IgG anti-Rabbit IgG and anti-mouse IgG (Bio-Rad Laboratories, Inc., Hercules, Calif.) were used at 1:5000 and 1:3000, respectively. […]

bcl-2 [3] = conditions: spinal cord tissue cultures, 1 mM, time-dependent
Procedure: as §1, §2

G93A transgenic ALS mice = conditions: for Survival (Days ± SD) / Percentile change (survival extension): G93A mice; for Percentile change (survival extension): vs 0 mg/kg/d
Procedure: We have standardized criteria to ensure homogeneity of the cohorts within the testing groups. Mice were randomized from 24 litters all within 4 days from the same ‘f’ generation. Body weights were taken at 20 days and mice were equally distributed according to weight within each experimental cohort. Mice under 8 g at 20 days were excluded from the experiments.
Intraperitoneal Dosing: Based upon previous studies (Reference 29), a dose response study was performed, treating groups (n=20) of wild type and G93A mice with 200, 600, 1,200, 2,000 and 5,000 mg/kg by daily intraperitoneal injection (100 μl) of sodium butyrate (Acros Organics/Fisher Scientific, Fairlawn, N.J.) dissolved in PBS and made fresh daily. Additional groups of mice were treated in the same manner with 100, 200, 400, 600, and 800 mg/kg of phenylbutyrate (Triple Crown America, Inc. Perkasie, Pa.). Control groups of G93A mice were treated with PBS injection (vehicle). Approximately 260 mice were used for behavioral and survival analyses.
Motor performance and ability to feed was closely monitored and used as the basis for determining when to euthanize the mice. The criterion for euthanization was the point in time the ALS mice were unable to right themselves after being placed on their back for 30 seconds. Some deaths occurred overnight and were recorded the following morning.

G93A mice [4] = assay: Motor performance on rotarod; type: in vivo; conditions: most efficacious doses, after 13 wks through endstage disease
[5] = tested on: histone 3 and histone 4 acetylation; conditions: treated WT and G93A mice
plκB [6] = conditions: N2a cells, 1 mM for three hours
Procedure: (§3) Immunofluorescence Staining and Microscopy: Indirect labeling methods were used to determine plκB and NF-κB p50 in N2aCells. […] The cells were washed with warm PBS and fixed at room temperature for 15 min with 4% paraformaldehyde (PFA). After washing with PBS, fixed cells were incubated with blocking solution containing 0.3% Triton X-100, 5% bovine serum albumin, and 3% goat serum for 1 hr, followed by incubation with primary antibodies overnight at 4° C. After three washes with PBS, the cells were incubated for 1 hr with FITC-conjugated (1:200 dilution) and Cy3-conjugated secondary antibody (1:200 dilution; Vector Laboratories, Burlingame, Calif.). The slides were washed three times with PBS and mounted with fluorochrome mounting solution. Images were analyzed using a fluorescence microscope. Control experiments were performed in the absence of primary antibody.

NF-κB p50 [7] = conditions: N2a cells, 1 mM for three hours
Procedure: as §3

G93A mice [8] = conditions: at 17 weeks, vs untreated G93A mice
Procedure: Clinical Assessment: Both motor performance and body weight were measured throughout the study. Training sessions were given on days 21 and 22 to acclimate the mice to the rotarod apparatus (Columbus Instruments, Columbus, Ohio). Motor performance (constant rotation at 16 rpm) was assessed weekly from 23-100 days of age and twice weekly from 101 days of age. Three 60 sec trials were given during each session and averaged. Body weights were recorded twice weekly at the same time of day. Gait analysis was performed measuring stride length (Reference 49).

G93A mice [9] = conditions: at 120 days, PBS-treated 4,680.6±847.4, WT 11,580.9±221.2
Body weight = type: in vivo; conditions: G93A mice, beginning after 100 days
plκB [10] = conditions: G93A mice
Procedure: (§4) Western Blotting: Tissue lysates and subcellular fractions were prepared using an ice-cold cell extraction buffer containing 50 mM Tris-HCl, pH 7.4, 150 mM NaCl, 2 mM EDTA, 1% Triton X-100, 1 mM phenylmethylsulfonyl fluoride (PMSF), 10 mg/ml leupeptin, 1 μM pepstatin, 1 mM N-ethylmleimide (NEM), 2 mM Na3VO4, 20 mM sodium pyrophosphate, and 50 mM NaF). Lysates were centrifuged at 15,000 rpm at 4° C. for 30 min. Then the protein concentration was quantified and samples were boiled for 10 min with Laemmli buffer (15 is 100 mM Tris-HCL, pH 6.8, 4% SDS, 200 mM dithiothreitol, 20% glycerol, 2% SDS, 0.2% bromophenol blue, 10 μg/ml aprotinin, 10 μg/ml leupeptin) at 100° C. In general, 30 μg of proteins were electrophoresed on 10% SDS-polyacrylamide gel and transferred to nitrocellulose membrane. Membranes were blocked in 5% skim milk in TBST (Tris, pH 7.4; 150 mM NaCl; 0.05% Tween 20) for 30 min at room temperature. Blots were probed with primary antibodies overnight at 4 ° C. […] HRP-conjugated secondary IgG anti-Rabbit IgG and anti-mouse IgG (Bio-Rad Laboratories, Inc., Hercules, Calif.) were used at 1:5000 and 1:3000, respectively. HL-60 Cell lysates were used as positive controls (Upstate Biotechnology, Lake Placid, N.Y.).

activated caspase 9 = conditions: G93A mice, 120 days, vs untreated
Procedure: as §4

cytochrome c = conditions: G93A spinal cord, 120 days, vs PBS-treated
Procedure: as §4

NF-κB p50 [11] = conditions: G93A mice, vs WT and vehicle-treated
Procedure: as §4

bcl-2 [12] = conditions: G93A mice, vs vehicle-treated
Procedure: as §4

activated caspase 3 = conditions: G93A mice, 120 days, vs untreated
Procedure: as §4

[13] = tested on: N2a mutant SOD (G41D) cells; conditions: 1 mM, 12 hr pretreatment, X/XO 6 hr, MTT, vs untreated cells
Procedure: (§5) N2a Cell Culture: N2a monolayer cell cultures were grown in 50% DMEM and 50% OPTI-MEM with 5% fetal bovine serum (FBS), 1% antibiotic antimycotic, and 400 microgram/ml of the neomycin analog G418. Differentiation was induced within 3 days in serum-free medium. The SOD1 mutation (G41D) was introduced into a plasmid clone of human genomic SOD1 (pHGSOD-SVneo). Stably transfected lines of N2a cells were selected with the drug G418, after transfection with SOD1 pHGSOD-SVneo plasmids. Differentiated cells were incubated without FBS for 6 days before treatments. […] Cell viability was measured by MTT assay.

WT and WT-SOD1 N2a cells = conditions: MTT
Procedure: as §5

ALS mice = conditions: References 10 and 11; cited from earlier work
humans with ALS = conditions: cited from earlier work

Compound: sodium phenylbutyrate [PBA]
- time of induced NF-κBp50 acetylation (acetylated NF-κB p50; spinal cord tissue cultures from G93A mice): 3 to 6 h
- time of induced NF-κBp50 acetylation (acetylated NF-κB p50; spinal cord tissue cultures from WT mice): 6 to 24 h
- morbidity and mortality (mice; 600 mg/kg/d i.p.): morbidity and mortality
- morbidity and mortality (mice; 800 mg/kg/d i.p.): morbidity and mortality
- increase of bcl-2 promotor activity (bcl-2 promoter; N2a cells transfected with bcl-2 reporter plasmids): 90%
- induction of bcl-2 promotor activity (bcl-2 promoter; N2a cells transfected with bcl-2 reporter plasmids, after 24 h of incubation): approximately 2 fold
- transactivation of wild type κB site bcl-2 promotor (bcl-2 promoter; N2a cells, transfection assay): transactivates
- mRNA upregulation of bcl-2 (bcl-2 mRNA): induced at 3 hours and sustained until 12 hours
- reactive astrogliosis (GFAP immunostaining) (G93A mice [1]): reduced
- gross spinal cord atrophy (G93A mice [1]; 400 mg/kg/d): ameliorated
- plκB protein (plκB [2]): increased
- bcl-2 protein (bcl-2 [3]): increased
- Survival (Days ± SD) (G93A transgenic ALS mice; 200 mg/kg/d i.p.): 136.5 ± 5.5 days
- Percentile change (survival extension) (G93A transgenic ALS mice; 200 mg/kg/d i.p.): 8.6%
- Survival (Days ± SD) (G93A transgenic ALS mice; 400 mg/kg/d i.p.): 153.2 ± 6.4 days
- Percentile change (survival extension) (G93A transgenic ALS mice; 400 mg/kg/d i.p.): 21.9%
- survival benefit (G93A transgenic ALS mice; transgenic SOD1 mice, this study, dose not stated): 22%
- motor performance (rotarod) (G93A mice [4]): significantly improved
- histone 3 and histone 4 acetylation (Western blot) [5]: markedly increased
- cytosolic plκB immunofluorescence (plκB [6]): increased
- nuclear translocation of NF-κB p50 immunofluorescence (NF-κB p50 [7]): increased
- stride length (G93A mice [8]): markedly improved
- estimated number of ventral horn neurons, lumbar cord (G93A mice [9]; 400 mg/kg/d i.p. from 21 days): 10,378.4±304.4
- body weight loss (Body weight): significantly reduced
- phosphorylation of lκB in the ventral horn (plκB [10]): increased
- activated caspase 9 (Western blot) (activated caspase 9): significantly reduces
- release of cytochrome c into the cytosol of neurons (cytochrome c): dramatic reduction
- expression of NF-κBp50 (NF-κB p50 [11]): Marked increased expression
- Bcl-2 expression in spinal cord sections (bcl-2 [12]): restored to WT levels
- activated caspase 3 (Western blot) (activated caspase 3): significantly reduces
- improvement of cell viability [13]: 34.7%
- protection against X/XO-induced cell death (WT and WT-SOD1 N2a cells): protects

Compound: [O-][n+]1cccc(/C(Cl)=N/OC[C@H](O)CN2CCCCC2)c1 [arimoclomal]
- survival extension (ALS mice): 22%

Compound: Nc1nc2ccc(OC(F)(F)F)cc2s1 [riluzole]
- extension of life (humans with ALS): 10-15%

Compound: COc1cc(/C=C/C(=O)CC(=O)/C=C/c2ccc(O)c(OC)c2)ccc1O [Curcumin]
- effect on PBA-induced bcl-2 promoter activity (bcl-2 promoter; N2a cells, with PBA): dose-dependently blocked

Compound: CCCC(=O)[O-].[Na+] [NAB, sodium butyrate]
- time to death (mice became moribund and died) (mice; 2 g/kg/d i.p.): 1 to 9 days
- time to sudden death (mice; 4 g/kg/d i.p.): 0.5 to 1.0 h
- reactive astrogliosis (GFAP immunostaining) (G93A mice [1]): reduced
- gross spinal cord atrophy (G93A mice [1]; 1.2 g/kg/d): ameliorated
- Survival (Days ± SD) (G93A transgenic ALS mice; 200 mg/kg/d i.p.): 129.2 ± 4.5 days
- Survival (Days ± SD) (G93A transgenic ALS mice; 600 mg/kg/d i.p.): 141.8 ± 5.9 days
- Percentile change (survival extension) (G93A transgenic ALS mice; 600 mg/kg/d i.p.): 12.5%
- Survival (Days ± SD) (G93A transgenic ALS mice; 1200 mg/kg/d i.p.): 151.3 ± 6.8 days
- Percentile change (survival extension) (G93A transgenic ALS mice; 1200 mg/kg/d i.p.): 20%
- motor performance (rotarod) (G93A mice [4]): significantly improved
- estimated number of ventral horn neurons, lumbar cord (G93A mice [9]; 1.2 g/kg/d i.p. from 21 days): 9,604.4±346.2
- body weight loss (Body weight): significantly reduced
